Experimental data reported in patent US20240308960A1 (Sumitomo Pharma Co., Ltd., priority 2021, published 2024).

target: T1, Human orexin receptor type 2 (Homo sapiens, UniProt O43614); assay: Test Example 1: agonist activity for orexin receptor type 2 (aequorin luminescence, intracellular calcium mobilization); settings: compound 10 μm; CHO cells transiently expressing human orexin receptor type 2 and apoaequorin; relative percentage of luminescence for the luminescence (100%) of Orexin A (100 μM)
T1 sequence (O43614 1-444): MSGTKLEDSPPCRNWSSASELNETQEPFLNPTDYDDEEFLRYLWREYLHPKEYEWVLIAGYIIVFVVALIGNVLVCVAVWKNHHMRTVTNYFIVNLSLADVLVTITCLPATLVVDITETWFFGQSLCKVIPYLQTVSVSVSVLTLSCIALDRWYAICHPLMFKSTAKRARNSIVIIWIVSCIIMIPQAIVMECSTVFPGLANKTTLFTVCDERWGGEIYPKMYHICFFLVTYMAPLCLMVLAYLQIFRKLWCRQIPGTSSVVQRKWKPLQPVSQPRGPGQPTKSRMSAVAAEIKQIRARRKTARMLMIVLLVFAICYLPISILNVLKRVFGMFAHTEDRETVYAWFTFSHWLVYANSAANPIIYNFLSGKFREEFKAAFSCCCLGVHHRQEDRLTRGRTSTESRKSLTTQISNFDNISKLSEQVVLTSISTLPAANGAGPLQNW

Q: For CCCN1CCCN(c2ccccc2NC(=O)N2CCC(C)(c3noc(C4CC4)n3)CC2)CC1 [Example 157, 4-(5-cyclopropyl-1,2,4-oxadiazol-3-yl)-4-methyl-N-[2-(4-propyl-1,4-diazepan-1-yl)phenyl]piperidine-1-carboxamide], which “Agonist Activity (%)” value is on record?
A: 94%

Q: For COc1cccc(CN2CCN(C(C)C)CC2)c1NC(=O)N1CCC(c2ccc(C)cc2)CC1 [Example 63, N-(2-methoxy-6-{[4-(propan-2-yl)piperazin-1-yl]methyl}phenyl)-4-(4-methylphenyl)piperidine-1-carboxamide], which “Agonist Activity (%)” value is on record?
A: 26%

Q: Which “Agonist Activity (%)” value does the source give for CCC1(c2noc(C3CC3)n2)CCN(C(=O)Nc2c(Cl)cccc2N2CCN(C(C)C)CC2)CC1 [Example 89, N-{2-chloro-6-[4-(propan-2-yl)piperazin-1-yl]phenyl}-4-(5-cyclopropyl-1,2,4-oxadiazol-3-yl)-4-ethylpiperidine-1-carboxamide] here?
A: 152%

Q: For COc1cccc(N2CCN(C(C)C)CC2)c1NC(=O)N1CCC(C)(c2noc(C(C)C)n2)CC1 [Example 21, N-{2-methoxy-6-[4-(propan-2-yl)piperazin-1-yl]phenyl}-4-methyl-4-[5-(propan-2-yl)-1,2,4-oxadiazol-3-yl]piperidine-1-carboxamide], which “Agonist Activity (%)” value is on record?
A: 156%

Q: How did the “Agonist Activity (%)” value turn out when Cc1ncc(C2(C)CCN(C(=O)Nc3c(Cl)cccc3N3CCN(C(C)C)CC3)CC2)o1 [Example 92, N-{2-chloro-6-[4-(propan-2-yl)piperazin-1-yl]phenyl}-4-methyl-4-(2-methyl-1,3-oxazol-5-yl)piperidine-1-carboxamide] was run?
A: 196%

Q: How did the “Agonist Activity (%)” value turn out when COc1cccc(C2CCN(C(C)C)CC2)c1NC(=O)N1CCC(c2ccc(C)cc2)CC1 [Example 48, N-{2-methoxy-6-[1-(propan-2-yl)piperidin-4-yl]phenyl}-4-(4-methylphenyl)piperidine-1-carboxamide] was run?
A: 146%

Q: Cc1ccc(C2CCN(C(=O)Nc3cccc(F)c3N3CCN(C(C)C)CC3)CC2)cc1 [Example 11, N-{3-fluoro-2-[4-(propan-2-yl)piperazin-1-yl]phenyl}-4-(4-methylphenyl)piperidine-1-carboxamide] was tested. Which “Agonist Activity (%)” value did it give?
A: 142%

Q: For CCN1CCN(c2ccccc2NC(=O)N2CCC(c3nc4ccccc4o3)CC2)CC1 [Example 2, 4-(1,3-benzoxazol-2-yl)-N-[2-(4-ethylpiperazin-1-yl)phenyl]piperidine-1-carboxamide], which “Agonist Activity (%)” value is on record?
A: 35%

Q: How did the “Agonist Activity (%)” value turn out when CC(C)c1ccc(-c2cccc(F)c2NC(=O)N2CCC(C)(c3noc(C4CC4)n3)CC2)cn1 [Example 60, 4-(5-cyclopropyl-1,2,4-oxadiazol-3-yl)-N-{2-fluoro-6-[6-(propan-2-yl)pyridin-3-yl]phenyl}-4-methylpiperidine-1-carboxamide] was run?
A: 102%

Q: For CC(C)N1CC=C(c2cccc(F)c2NC(=O)N2CCC(C)(c3cc(C4CC4)on3)CC2)CC1 [Example 55, 4-(5-cyclopropyl-1,2-oxazol-3-yl)-N-{2-fluoro-6-[1-(propan-2-yl)-1,2,3,6-tetrahydropyridin-4-yl]phenyl}-4-methylpiperidine-1-carboxamide], which “Agonist Activity (%)” value is on record?
A: 154%

Q: For CC1(c2cc(C3CC3)on2)CCN(C(=O)Nc2c(F)cccc2-c2ccc(C(F)(F)F)nc2)CC1.Cl [Example 71, 4-(5-cyclopropyl-1,2-oxazol-3-yl)-N-{2-fluoro-6-[6-(trifluoromethyl)pyridin-3-yl]phenyl}-4-mehylpiperidine-1-carboxamide hydrochloride], which “Agonist Activity (%)” value is on record?
A: 88%

Q: Which “Agonist Activity (%)” value does the source give for Cc1ccccc1C1CCN(C(=O)Nc2c(F)cccc2N2CCN(C(C)C)CC2)CC1 [Example 37, N-{2-fluoro-6-[4-(propan-2-yl)piperazin-1-yl]phenyl}-4-(2-methylphenyl)piperidine-1-carboxamide] here?
A: 47%

Q: With COc1cccc(N2CCN(C(C)C)CC2)c1NC(=O)N1CCC(C)(c2noc(C)n2)CC1 [Example 23, N-{2-methoxy-6-[4-(propan-2-yl)piperazin-1-yl]phenyl}-4-methyl-4-(5-methyl-1,2,4-oxadiazol-3-yl)piperidine-1-carboxamide] as the molecule, how does the “Agonist Activity (%)” value read?
A: 92%

Q: With Cc1ccc(C2CCN(C(=O)Nc3c(F)cccc3N3CCN(C(C)C)CC3)CC2C)cc1 (racemic) [Example 26, Rac-N-{2-fluoro-6-[4-(propan-2-yl)piperazin-1-yl]phenyl}-3-methyl-4-(4-methylphenyl)piperidine-1-carboxamide] as the molecule, how does the “Agonist Activity (%)” value read?
A: 63%

Q: Which “Agonist Activity (%)” value does the source give for CC(C)N1CCN(c2cccc(F)c2NC(=O)N2CCC(Oc3ccccc3)CC2)CC1 [Example 27, N-{2-fluoro-6-[4-(propan-2-yl)piperazin-1-yl]phenyl}-4-phenoxypiperidine-1-carboxamide] here?
A: 129%

Q: Which “Agonist Activity (%)” value does the source give for CCOc1cccc(C2CCN(C(C)C)CC2)c1NC(=O)N1CCC(c2ccc(C)cc2)CC1 [Example 127, N-{2-ethoxy-6-[1-(propan-2-yl)piperidin-4-yl]phenyl}-4-(4-methylphenyl)piperidine-1-carboxamide] here?
A: 145%

Q: CC(C)N1CCN(c2cccc(F)c2NC(=O)N2CCC(c3cc(C4CC4)on3)CC2)CC1 [Example 52, 4-(5-cyclopropyl-1,2-oxazol-3-yl)-N-{2-fluoro-6-[4-(propan-2-yl)piperazin-1-yl]phenyl}piperidine-1-carboxamide] was tested. Which “Agonist Activity (%)” value did it give?
A: 155%

Q: With Cc1nc(C2(C)CCN(C(=O)Nc3c(F)cccc3N3CCN(C(C)C)CC3)CC2)no1 [Example 22, N-{2-fluoro-6-[4-(propan-2-yl)piperazin-1-yl]phenyl}-4-methyl-4-(5-methyl-1,2,4-oxadiazol-3-yl)piperidine-1-carboxamide] as the molecule, how does the “Agonist Activity (%)” value read?
A: 97%

Q: With Cc1nc(C2(C)CCN(C(=O)Nc3c(Cl)cccc3N3CCN(C(C)C)CC3)CC2)no1 [Example 81, N-{2-chloro-6-[4-(propan-2-yl)piperazin-1-yl]phenyl}-4-methyl-4-(5-methyl-1,2,4-oxadiazol-3-yl)piperidine-1-carboxamide] as the molecule, how does the “Agonist Activity (%)” value read?
A: 145%

Q: How did the “Agonist Activity (%)” value turn out when Cc1ccc(C2CCN(C(=O)Nc3ccccc3[C@@H]3CN[C@@H](C(C)C)CO3)CC2)cc1 [Example 166, 4-(4-Methylphenyl)-N-{2-[(2R,5S)-5-(propan-2-yl)morpholin-2-yl]phenyl}piperidine-1-carboxamide] was run?
A: 72%

Q: Which “Agonist Activity (%)” value does the source give for CC(C)N1CCN(c2cccc(F)c2NC(=O)N2C3CCC2CC(c2nc(C4CC4)no2)C3)CC1 (stereo not drawn) [Example 32, 3-(3-cyclopropyl-1,2,4-oxadiazol-5-yl)-N-{2-fluoro-6-[4-(propan-2-yl)piperazin-1-yl]phenyl}-8-azabicyclo[3.2.1]octane-8-carboxamide] here?
A: 30%

Q: For Cc1onc(C2(C)CCN(C(=O)Nc3c(Cl)cccc3N3CCN(C(C)C)CC3)CC2)c1Cl [Example 90, 4-(4-chloro-5-methyl-1,2-oxazol-3-yl)-N-{2-chloro-6-[4-(propan-2-yl)piperazin-1-yl]phenyl}-4-methylpiperidine-1-carboxamide], which “Agonist Activity (%)” value is on record?
A: 164%

Q: How did the “Agonist Activity (%)” value turn out when COc1cccc(N2CCN(C(C)C)CC2)c1NC(=O)N1CCC(c2ccc(C(F)(F)F)cc2)CC1 [Example 15, N-{2-methoxy-6-[4-(propan-2-yl)piperazin-1-yl]phenyl}-4-[4-(trifluoromethyl)phenyl]piperidine-1-carboxamide] was run?
A: 101%

Q: With COC1(c2nc(C3(C)CCN(C(=O)Nc4c(Cl)cccc4N4CCN(C(C)C)CC4)CC3)no2)CC1 [Example 108, N-{2-chloro-6-[4-(propan-2-yl)piperazin-1-yl]phenyl}-4-[5-(1-methoxycyclopropyl)-1,2,4-oxadiazol-3-yl]-4-methylpiperidine-1-carboxamide] as the molecule, how does the “Agonist Activity (%)” value read?
A: 157%

Q: How did the “Agonist Activity (%)” value turn out when CC(CF)N1CC=C(c2cccc(Cl)c2NC(=O)N2CCC(C)(c3cc(C4CC4)on3)CC2)CC1 (stereo not drawn) [Example 141, N-{2-chloro-6-[1-(1-fluoropropan-2-yl)-1,2,3,6-tetrahydropyridin-4-yl]phenyl}-4-(5-cyclopropyl-1,2-oxazol-3-yl)-4-methylpiperidine-1-carboxamide] was run?
A: 121%

Q: How did the “Agonist Activity (%)” value turn out when Cc1ccc(N2CCCN(C(=O)Nc3c(Cl)cccc3N3CCN(C(C)C)CC3)CC2)cc1 [Example 99, N-{2-chloro-6-[4-(propan-2-yl)piperazin-1-yl]phenyl}-4-(4-methylphenyl)-1,4-diazepane-1-carboxamide] was run?
A: 75%

Q: CC(C)N1CCC(c2cccc(F)c2NC(=O)N2CCC(C)(c3cc(C4CC4)on3)CC2)CC1 [Example 53, 4-(5-cyclopropyl-1,2-oxazol-3-yl)-N-{2-fluoro-6-[1-(propan-2-yl)piperidin-4-yl]phenyl}-4-methylpiperidine-1-carboxamide] was tested. Which “Agonist Activity (%)” value did it give?
A: 140%

Q: Which “Agonist Activity (%)” value does the source give for Cc1ccc(C2CCN(C(=O)Nc3ccccc3N3CCN(C(C)C)C(C)C3)CC2)cc1 (racemic) [Example 28, Rac-4-(4-methylphenyl)-N-{2-[3-methyl-4-(propan-2-yl)piperazin-1-yl]phenyl}piperidine-1-carboxamide] here?
A: 104%

Q: With CC(C)N1CCN(c2ccccc2NC(=O)N2CCC(C)(c3nc(-c4cccnc4)no3)CC2)CC1 [Example 13, 4-methyl-N-{2-[4-(propan-2-yl)piperazin-1-yl]phenyl}-4-[3-(pyridin-3-yl)-1,2,4-oxadiazol-5-yl]piperidine-1-carboxamide] as the molecule, how does the “Agonist Activity (%)” value read?
A: 99%

Q: For CC(C)N1CCN(c2cccc(F)c2NC(=S)N2CCC(C)(c3noc(C4CC4)n3)CC2)CC1 [Example 57, 4-(5-cyclopropyl-1,2,4-oxadiazol-3-yl)-N-{2-fluoro-6-[4-(propan-2-yl)piperazin-1-yl]phenyl}-4-methylpiperidine-1-carbothioamide], which “Agonist Activity (%)” value is on record?
A: 171%
